The nature of data set [1]: Photostability (dye photobleaching under irradiation). It is filed as physicochemical. The note with it: for photobleaching: irradiated for an hour at 620 nm, PBS pH 7.0, A620 nm<0.1 (FIG. 7); for photobleached: after 60 minutes of irradiation at 620 nm, PBS pH 7.0, absorbance matched (FIG. 4). As for the experimental part: Photostability data were collected on a Horiba Jobin Yvon Fluorolog-3 spectrofluorometer (Edison, N.Y.) equipped with a 450 W xenon lamp (Ushio inc. Japan). Dye photobleaching was observed by monitoring the fluorescence emission of absorbance matched dye samples (absorbance <0.1) at an excitation wavelength 620 nm for 60 minutes. […] Thus, CyAm-5 acid has 28% better photostability than Cy5.
Dye samples with the same absorption (A620 nm<0.1) were irradiated for an hour at 620 nm. Both bio-conjugatable new dyes, CyAm-5 acid and CycloCyAm-5 acid with photobleaching of 30% and 12%, respectively, were more photostable than Cy5 (45%).

The test system of a further data set is CHO cells. Nature of the data set: Fluorescence labeling and imaging of azido-sugar modified CHO cells by click reaction. The data set is classed as cell-based, Chinese hamster. Conditions: fixed CHO cells. How it is done:
Chinese hamster ovary (CHO) cells were maintained in a 5% CO2, water-saturated atmosphere and grown in F12 HAMS medium supplemented with 10% FBS, 1% penstrep and 1% L-glutamine. For biolabeling experiments, the cells were incubated for 2-3 days in the regular medium or medium supplemented with 100 μM Ac4ManNAc (Molecular probes) in an eight-well LabTek II chamber slide (Nunc). The medium was gently aspirated, and the cells were fixed at −20° C. by methanol for 10 min and then acetone for 1 min. […] Fluorescent images were captured on a Nikon Eclipse TE2000-S fluorescence microscope with 40× objective equipped with a Photometrics Cascade 512B CCD camera using excitation and emission filters from Chroma Technology. […]
Cells incubated with azido-sugar supplemented media (top) or unsupplimented media (bottom) are presented after treatment with CyAm-5 alkyne in the presence of Cu(I)/TBTA as catalyst. Cell nuclei stained with DAPI colored blue (left), fluorescence signal from CyAm-5 alkyne colored red (center) and the merged images (right) are shown. […]
FIGS. 6A-6B show fluorescent imaging of CHO cells labeled with CyAm-5 alkyne and controls. […] Cell nuclei stained with DAPI, fluorescence of labeled CyAm-5 alkyne and merge figures of the two above are shown in column left, middle and right, respectively. […]

Data set [2] is described as follows: Absorption spectra and extinction coefficients of the fluorophores. It is filed as physicochemical. The note with it: PBS, pH 7.0. As for the experimental part:
Absorption spectra and extinction coefficients of the fluorophores were obtained on a Varian Cary 50-Bio UV-visible spectrophotometer. Extinction coefficients were measured in phosphate-buffered saline (PBS), 10 mM phosphate buffer pH 7.0, […] potassium chloride and 137 mM sodium chloride and were averaged over at least three sets of parallel experiments. For each trail, 2-3 mg of the HPLC-purified dyes were weighed on a Mettler AT201 analytical balance with an error of ±0.01 mg and were dissolved in deionized water using a 10 mL volumetric flask to prepare the stock solutions.
(§1) FIG. 9 summarizes the optical properties of CyAl-5 and CyAl-5.5. Spectra were obtained in phosphate buffered solution, pH 7.0. The extinction coefficients, at the dye absorption maxima, were performed in triplicate. Emission spectra were excited at 620 nm for CyAl-5 and 640 nm for CyAl-5.5. CyAl-5 and CyAl-5.5, Cy5 and Cy5.5 were used as fluorescence standards, respectively. The data are the average of at least 8 replicates and errors were <5%.

Data set [3] is described as follows: Emission spectra and fluorescence quantum yield. The data set is classed as physicochemical. The note with it: PBS, pH 7.0. As for the experimental part:
Emission spectra were collected on a Varian Cary Eclipse fluorescence spectrophotometer. Quantum yield measurements were performed on at least eight trails for each dye derivative with maximum absorption for each sample less than 0.1, using Cy5 as a standard (Φ=0.27) (Mujumdar, R. B., Ernst, L. A., Mujumdar, S. R., Lewis, C. J., and Waggoner, A. S. (1993) Cyanine dye labeling reagents: sulfoindocyanine succinimidyl esters. Bioconjug. Chem. 4, 105-11). The standard deviation for both the extinction coefficient and quantum yield measurements is less than 5%.
as §1

The conditions of data set [4]: as indicated on www.gelifesciences.com; cited from earlier work.
The conditions of data set [5]: cited from earlier work; for λem: as indicated on www.gelifesciences.com.

Results on five compounds are retold here after patent publication US8916137B2, “Monofunctional carbocyanine dyes for in vivo and in vitro imaging” (The General Hospital Corporation, priority 2008, dated 2014).

In the case of `CC1(C)C2=C(/C=C(/C=C3\CCC[N+]4=C3C(C)(C)c3cc(S(=O)(=O)O)ccc34)CCC(=O)Nc3ccc(C(=O)O)cc3)CCCN2c2ccc(S(=O)(=O)O)cc21` [CycloCyAm-5 acid], in data set [1], the photobleaching is 12%.
With `C#Cc1cccc(NC(=O)CCC(/C=C/C2=[N+](CC)c3ccc(S(=O)(=O)O)cc3C2(C)C)=C\C=C2\N(CC)c3ccc(S(=O)(=O)O)cc3C2(C)C)c1` [CyAm-5 alkyne], in the data set with CHO cells (20 μM dye, Cu(I) catalyst (FIG. 5)), the “fluorescence signal of cells bearing azido sialic acid versus control cells” value is on record as “increased fluorescence signal”. In addition, the “conditions under which enhancement of fluorescence signal is observed” value with CHO cells (with or without Cu(I), TBTA, azido-sugar (FIG. 6A-B)) was “only observed in the presence of both catalyst Cu(I) and azido glycans”.
Turning to `CCN1/C(=C/C=C(/C=C/C2=[N+](CC)c3ccc(S(=O)(=O)O)cc3C2(C)C)CCC(=O)Nc2ccc(C(=O)O)cc2)C(C)(C)c2cc(S(=O)(=O)O)ccc21` [CyAm-5 acid], in data set [1], the photobleached was determined as 42% and the photobleaching is 30%. For the same compound, the “better photostability / less photobleaching compared to Cy5” value in data set [1] (after an hour irradiation at 620 nm (FIG. 4)) came to 28%. Moreover, in data set [2], the absorption maximum worked out at 642 nm. In data set [3], this compound returned an emission maximum of 658 nm.
Take Cy5.5: the λabs in data set [4] is recorded as 673 nm. In data set [5], the λem is listed as 693 nm.
Turning to `CCN1/C(=C/C=C/C=C/C2=[N+](CCCCCC(=O)O)c3ccc(S(=O)(=O)O)cc3C2(C)C)C(C)(C)c2cc(S(=O)(=O)[O-])ccc21` [Cy5], in data set [1], the photobleached is 54% and the photobleaching worked out at 45%. In data set [4], the λabs is reported as 646 nm. For the same compound, the “quantum yield of standard (Φ)” value in data set [5] (Cy5 used as standard, literature value) was 0.27. For the same compound, the λem in data set [5] is on record as 664 nm.
